According to US8889721B2, “Clothianidin, metofluthrin, and piperonyl butoxide mixture for bed bug control” (priority 2012, dated 2014):

Key:
[1] = system: Winston Salem-strain bed bugs; test: Residual exposure to mixtures on wood panels, mortality/morbidity and knockdown (Example 7); assay type: in vivo, Cimex lectularius
Procedure: (§1) A bioassay was performed to determine the knockdown and mortality rates of bed bugs exposed to the residual of mixtures of clothianidin, metofluthrin, and PBO. Two bed bug (Cimex lectularius) strains were used; Harlan-strain which is susceptible to pyrethroids, and Winston Salem-strain which is known to have a 500-fold resistance level to deltamethrin. In this bioassay, a mixture of clothianidin, metofluthrin, and PBO with fumed silica was compared to combinations of clothianidin and metofluthrin, clothianidin and PBO, and clothianidin.
(§2) Unpainted wood was cut into 6 inch square panels and a DeVries spray booth was used to deliver 1 ml of test substance in an even spray that provided approximately 1 gal/1000 sq. ft. delivery rate. A cone jet nozzle was used approximately 12 inches directly above the wood panels. The panels were allowed to dry and then aged indoors in a climate controlled environment with temperatures ranging from approximately 65 to 72 degrees Fahrenheit. All tests were done in 4 replicates (40 total insects per treatment).
(§3) Insects were fed a blood meal the day prior to testing. The inner walls of Petri dishes were treated with Fluon to prevent the insects from attaching to the sides of the dishes during treatment.
(§4) On the day of testing, 10 insects were placed in each Petri dish. The bed bugs were separated with tweezers and observed to be healthy and active before treatments. The Petri dishes were inverted onto the treated surface and gentle tapping was sometimes used to dislodge the insects from the dishes. After 5 minutes, the insects were returned to containers for mortality/morbidity and knockdown observations.
(§5) Insects were considered moribund when they were knocked down and unable to right themselves when probed. Insects were considered dead when they had no body movement. Untreated controls were handled in the same manner except that they were exposed to water treated wood panels.
(§6) Insects were exposed to the wood panels on day 1 and day 30. Mortality and morbidity observations were taken until the untreated control mortality reached […] (day 7 following exposure).
(§7) The bed bugs were observed and recordings were taken at 10, 20, 30, 60 and 240 minutes following exposure to the wood panels. Table 4 provides the percentage of bed bugs from all 4 replicates (40 total insects per treatment) that were knocked down 10 and 240 minutes after exposure to the wood panels.

Harlan-strain bed bugs = test: as above; assay type: in vivo, Cimex lectularius; settings: for % Morbidity / % Mortality: Residual Efficacy at Day 30
Procedure: as §1, §2, §3, §4, §5, §6, §7

[2] = Residual Efficacy at Day 1, 1 day
[3] = Residual Efficacy at Day 1, 2 day
[4] = Residual Efficacy at Day 1, 3 day
[5] = Residual Efficacy at Day 30, 1 DAT
[6] = Residual Efficacy at Day 30, 2 DAT
[7] = Residual Efficacy at Day 30, 3 DAT
[8] = Residual Efficacy at Day 30, 4 DAT
[9] = Residual Efficacy at Day 30, 5 DAT
[10] = Residual Efficacy at Day 30, 6 DAT
[11] = Residual Efficacy at Day 30, 7 DAT

## CN/C(=N\[N+](=O)[O-])NCc1cnc(Cl)s1 [0.4% Cloth.]
[1]; Day 1 @ 10 minutes
  Knockdown: 0%
[1]; Day 1 @ 240 minutes
  Knockdown: 50%
[1]; Day 30 @ 10 minutes
  Knockdown: 3%
[1]; Day 30 @ 240 min
  Knockdown: 28%
[1]; [2]
  % Morbidity: 18%
  % Mortality: 60%
  % Mortality + Morbidity: 78%
[1]; [3]
  % Morbidity: 18%
  % Mortality: 60%
  % Mortality + Morbidity: 78%
[1]; [4]
  % Morbidity: 12.5%
  % Mortality: 87.5%
  % Mortality + Morbidity: 100%
[1]; [5]
  % Morbidity: 33%
  % Mortality: 10%
[1]; [6]
  % Morbidity: 28%
  % Mortality: 20%
[1]; [7]
  % Morbidity: 18%
  % Mortality: 43%
[1]; [8]
  % Morbidity: 10%
  % Mortality: 53%
[1]; [9]
  % Morbidity: 8%
  % Mortality: 63%
[1]; [10]
  % Morbidity: 3%
  % Mortality: 70%
[1]; [11]
  % Morbidity: 5%
  % Mortality: 70%
Harlan-strain bed bugs; Day 1 @ 10 minutes
  Knockdown: 48%
Harlan-strain bed bugs; Day 1 @ 240 minutes
  Knockdown: 95%
Harlan-strain bed bugs; Day 30 @ 10 minutes
  Knockdown: 20%
Harlan-strain bed bugs; Day 30 @ 240 min
  Knockdown: 95%
Harlan-strain bed bugs; 1 DAT
  % Morbidity: 75%
  % Mortality: 23%
Harlan-strain bed bugs; 2 DAT
  % Morbidity: 33%
  % Mortality: 68%
Harlan-strain bed bugs; 3 DAT
  % Morbidity: 0%
  % Mortality: 100%
